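GI50 marks 50% less growth. The concentration for full growth arrest is given as TGI.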
How the values were obtained:
Assay in all cases: NCI anticancer screen, dose series, 384-well format
A549 NSCLC = system: A549 NSCLC
T-47D breast = system: T-47D breast
DU-145 prostate = system: DU-145 prostate
CAKI-1 renal = system: CAKI-1 renal
SF-295 CNS = system: SF-295 CNS
KM12 colon = system: KM12 colon
SN12C renal = system: SN12C renal
NCI-H322M lung = system: NCI-H322M lung
NCI-H460 NSCLC = system: NCI-H460 NSCLC
HS 578T breast = system: HS 578T breast
HOP-92 NSCLC = system: HOP-92 NSCLC
NCI/ADR-RES ovarian = system: NCI/ADR-RES ovarian
U251 glioblastoma = system: U251 glioblastoma
SF-539 CNS = system: SF-539 CNS
ACHN renal = system: ACHN renal
MOLT-4 leukemia = system: MOLT-4 leukemia
UO-31 renal = system: UO-31 renal
MDA-MB-468 breast = system: MDA-MB-468 breast
BT-549 breast = system: BT-549 breast
CCRF-CEM leukemia = system: CCRF-CEM leukemia
OVCAR-5 ovarian = system: OVCAR-5 ovarian
A498 renal = system: A498 renal
PC-3 prostate = system: PC-3 prostate
HT29 colon = system: HT29 colon
UACC-257 melanoma = system: UACC-257 melanoma
K-562 leukemia = system: K-562 leukemia
HCT-116 colon = system: HCT-116 colon
SNB-75 CNS = system: SNB-75 CNS

## CC[C@@H](C)Nc1cc(C(=O)NC2CC3CCC(C2)N3c2ccc(C(=O)C3CC3)cn2)c(C)cc1C(N)=O (some centres undefined)
A549 NSCLC
  GI50: < 0.01 µM
  TGI: 11.7 µM
T-47D breast
  GI50: 0.0122 µM
  TGI: 0.0528 µM
DU-145 prostate
  GI50: 0.0238 µM
  TGI: 0.732 µM
CAKI-1 renal
  GI50: 0.0462 µM
  TGI: 19.2 µM
SF-295 CNS
  GI50: 0.0242 µM
  TGI: 0.0653 µM
KM12 colon
  GI50: 0.0199 µM
  TGI: 1.62 µM
SN12C renal
  GI50: 0.0248 µM
  TGI: 0.0766 µM
NCI-H322M lung
  GI50: 0.0275 µM
  TGI: 19.1 µM
NCI-H460 NSCLC
  GI50: < 0.01 µM
  TGI: 0.0243 µM
HS 578T breast
  GI50: 0.0403 µM
  TGI: 0.236 µM
HOP-92 NSCLC
  GI50: 0.0285 µM
  TGI: 0.0708 µM
NCI/ADR-RES ovarian
  GI50: 0.277 µM
  TGI: 0.782 µM
U251 glioblastoma
  GI50: 0.0232 µM
  TGI: 0.0656 µM
SF-539 CNS
  GI50: 0.02 µM
  TGI: 0.0511 µM
ACHN renal
  GI50: 0.045 µM
  TGI: 28.4 µM
MOLT-4 leukemia
  GI50: < 0.01 µM
  TGI: 0.0176 µM
UO-31 renal
  GI50: 0.0428 µM
  TGI: 67.7 µM
MDA-MB-468 breast
  GI50: 0.0179 µM
  TGI: 0.0428 µM
BT-549 breast
  GI50: 0.0125 µM
CCRF-CEM leukemia
  GI50: < 0.01 µM
  TGI: 0.037 µM
OVCAR-5 ovarian
  GI50: 0.0399 µM
  TGI: 30.8 µM
A498 renal
  GI50: 0.0233 µM
  TGI: 17.6 µM
PC-3 prostate
  GI50: 0.0283 µM
  TGI: 0.0859 µM
HT29 colon
  GI50: < 0.01 µM
  TGI: 11.5 µM
UACC-257 melanoma
  GI50: 0.0621 µM
  TGI: 25.1 µM
K-562 leukemia
  GI50: 0.0199 µM
  TGI: 0.205 µM
HCT-116 colon
  GI50: 0.0368 µM
  TGI: 14.9 µM
SNB-75 CNS
  GI50: 0.0824 µM

— PubChem BioAssay (NCI)
